These results are taken from ChEMBL document CHEMBL5465560, “Selectivity Literature for EUbOPEN Chemogenomic Library” (2024).

Experiment [1] deals with Thromboxane-A synthase (Homo sapiens) (UniProt P24557). The experiment can be described thus: Selectivity interaction (Eurofins safety panel) EUB0001564a CYP5A1. Particulars: at 10 µM.
Experiment [2] concerns the target 5'-AMP-activated protein kinase catalytic subunit alpha-1 (Homo sapiens, UniProt Q13131). The experiment can be described thus: Selectivity interaction (KinomeScan (DiscoverX)) EUB0001619a PRKAA1. As to conditions: at 1 µM.
Experiment [3] deals with Mitotic checkpoint serine/threonine-protein kinase BUB1 (Homo sapiens, UniProt O43683). The experiment can be described thus: Selectivity interaction (KinomeScan (DiscoverX)) EUB0001619a BUB1. As to conditions: at 1 µM.
The target in experiment [4] is Calcium/calmodulin-dependent protein kinase type II subunit gamma (Homo sapiens) (UniProt Q13555). As to conditions: at 10 µM.
Calcium/calmodulin-dependent protein kinase type II subunit gamma (Homo sapiens), sequence (Q13555 whole entry): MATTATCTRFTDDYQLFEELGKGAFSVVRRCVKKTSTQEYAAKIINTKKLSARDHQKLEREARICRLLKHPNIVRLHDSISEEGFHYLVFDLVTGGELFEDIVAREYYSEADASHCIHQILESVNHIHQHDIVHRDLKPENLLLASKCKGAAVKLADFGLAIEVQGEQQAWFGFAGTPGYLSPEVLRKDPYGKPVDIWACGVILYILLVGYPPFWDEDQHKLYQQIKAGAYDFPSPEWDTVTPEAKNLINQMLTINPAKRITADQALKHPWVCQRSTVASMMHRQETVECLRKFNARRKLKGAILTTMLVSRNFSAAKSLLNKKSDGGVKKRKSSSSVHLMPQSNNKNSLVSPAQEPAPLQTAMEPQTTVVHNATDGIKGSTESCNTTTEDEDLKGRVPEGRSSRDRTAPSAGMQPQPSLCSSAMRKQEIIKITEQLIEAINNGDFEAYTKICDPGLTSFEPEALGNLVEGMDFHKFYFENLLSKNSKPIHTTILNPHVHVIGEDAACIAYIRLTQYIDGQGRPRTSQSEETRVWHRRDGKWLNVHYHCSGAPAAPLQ
The target of experiment [5] is T1, Tyrosine-protein kinase ITK/TSK (Homo sapiens) (UniProt Q08881).
T1 sequence (whole entry): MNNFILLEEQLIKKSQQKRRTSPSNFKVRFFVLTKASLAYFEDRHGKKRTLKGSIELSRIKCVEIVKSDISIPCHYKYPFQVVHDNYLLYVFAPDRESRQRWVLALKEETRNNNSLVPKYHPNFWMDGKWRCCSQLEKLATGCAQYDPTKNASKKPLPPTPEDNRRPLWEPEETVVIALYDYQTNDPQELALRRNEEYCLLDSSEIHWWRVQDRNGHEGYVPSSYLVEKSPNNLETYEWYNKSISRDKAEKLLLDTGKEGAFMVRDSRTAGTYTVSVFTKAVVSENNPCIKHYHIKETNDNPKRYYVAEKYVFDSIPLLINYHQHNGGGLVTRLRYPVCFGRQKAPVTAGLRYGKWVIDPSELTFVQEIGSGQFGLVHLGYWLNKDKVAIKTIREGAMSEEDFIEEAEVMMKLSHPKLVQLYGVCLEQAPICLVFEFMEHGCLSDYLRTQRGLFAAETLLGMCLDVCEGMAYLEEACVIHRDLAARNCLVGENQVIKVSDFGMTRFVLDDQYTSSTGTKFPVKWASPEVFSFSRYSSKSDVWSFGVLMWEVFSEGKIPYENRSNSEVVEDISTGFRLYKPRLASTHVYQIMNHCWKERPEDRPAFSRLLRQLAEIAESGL
The experiment can be described thus: Selectivity interaction (KinomeScan (DiscoverX)) EUB0000695a ITK. As to conditions: at 100 nM.

The target of experiment [6] is Activin receptor type-2B (Homo sapiens) (UniProt Q13705). The experiment can be described thus: Selectivity interaction (KinomeScan (DiscoverX)) EUB0000607a ACVR2B. As to conditions: at 10 µM.
Experiment [7] addresses Glycogen synthase kinase-3 alpha (Homo sapiens, UniProt P49840). The experiment can be described thus: Selectivity interaction (SelectScreen profiling (Invitrogen)) EUB0000607a GSK3A. As to conditions: at 2 µM.
Experiment [8] has as its target Serine/threonine-protein kinase MARK1 (Homo sapiens) (UniProt Q9P0L2). As to conditions: at 10 µM.
For experiment [9], the target named is Cyclin-dependent kinase 5 (Homo sapiens, UniProt Q00535). The experiment can be described thus: Selectivity interaction (ActivX KiNativ screen (kinase selectivity in THP-1 cell lysates)) EUB0000639a CDK5. Particulars: lysate, at 0.04 µM. The class given is subcellular.
The target of experiment [10] is Interleukin-1 receptor-associated kinase 1 (Homo sapiens) (UniProt P51617). The experiment can be described thus: Selectivity interaction (Kinase panel (Invitrogen)) EUB0000639a IRAK1. As to conditions: at 200 nM.
The target of experiment [11] is T2, Phosphatidylinositol 5-phosphate 4-kinase type-2 gamma (Homo sapiens) (UniProt Q8TBX8).
T2 sequence (whole entry): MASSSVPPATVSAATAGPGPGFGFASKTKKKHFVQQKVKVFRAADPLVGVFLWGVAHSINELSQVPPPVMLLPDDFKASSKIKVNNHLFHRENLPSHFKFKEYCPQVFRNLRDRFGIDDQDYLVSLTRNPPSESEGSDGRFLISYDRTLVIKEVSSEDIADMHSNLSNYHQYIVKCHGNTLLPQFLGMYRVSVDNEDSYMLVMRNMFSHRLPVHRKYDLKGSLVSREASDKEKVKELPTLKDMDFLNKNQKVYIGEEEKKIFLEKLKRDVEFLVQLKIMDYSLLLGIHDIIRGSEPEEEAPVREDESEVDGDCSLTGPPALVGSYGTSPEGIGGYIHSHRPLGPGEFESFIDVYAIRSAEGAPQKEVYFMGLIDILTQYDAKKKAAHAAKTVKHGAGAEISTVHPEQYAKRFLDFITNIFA
The experiment can be described thus: Selectivity interaction (ActivX KiNativ screen (kinase selectivity in THP-1 cell lysates)) EUB0000639a PIP4K2C. Particulars: lysate, at 1 µM. The class given is subcellular.

Experiment [12] deals with Serine/threonine-protein kinase B-raf (Homo sapiens) (UniProt P15056). The experiment can be described thus: Selectivity interaction (Kinase panel (DSF assay)) EUB0001559a BRAF. A general note: Differential scanning fluorimetry follows unfolding on heating by fluorescence.
The target of experiment [13] is T3, Lymphokine-activated killer T-cell-originated protein kinase (Homo sapiens) (UniProt Q96KB5).
T3 sequence (whole entry): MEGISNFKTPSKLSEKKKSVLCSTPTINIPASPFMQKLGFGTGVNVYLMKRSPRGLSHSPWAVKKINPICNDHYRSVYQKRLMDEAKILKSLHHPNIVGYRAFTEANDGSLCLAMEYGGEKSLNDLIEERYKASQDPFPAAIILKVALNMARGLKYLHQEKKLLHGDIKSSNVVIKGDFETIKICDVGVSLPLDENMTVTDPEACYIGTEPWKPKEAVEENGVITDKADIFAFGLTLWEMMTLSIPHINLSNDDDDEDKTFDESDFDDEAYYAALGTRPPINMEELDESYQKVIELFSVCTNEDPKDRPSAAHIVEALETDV
The experiment can be described thus: Selectivity interaction (Kinase panel (literature)) EUB0001199aCl PBK. Particulars: at 1 µM.

The target in experiment [14] is Histone-lysine N-methyltransferase, H3 lysine-36 specific (Homo sapiens) (UniProt Q96L73). The experiment can be described thus: Selectivity interaction (PWWP, WD40, and Tudor domain panel (DSLS measurements, literature)) EUB0000270b NSD1.
Histone-lysine N-methyltransferase, H3 lysine-36 specific (Homo sapiens), sequence (Q96L73 whole entry, the tested form may be a part): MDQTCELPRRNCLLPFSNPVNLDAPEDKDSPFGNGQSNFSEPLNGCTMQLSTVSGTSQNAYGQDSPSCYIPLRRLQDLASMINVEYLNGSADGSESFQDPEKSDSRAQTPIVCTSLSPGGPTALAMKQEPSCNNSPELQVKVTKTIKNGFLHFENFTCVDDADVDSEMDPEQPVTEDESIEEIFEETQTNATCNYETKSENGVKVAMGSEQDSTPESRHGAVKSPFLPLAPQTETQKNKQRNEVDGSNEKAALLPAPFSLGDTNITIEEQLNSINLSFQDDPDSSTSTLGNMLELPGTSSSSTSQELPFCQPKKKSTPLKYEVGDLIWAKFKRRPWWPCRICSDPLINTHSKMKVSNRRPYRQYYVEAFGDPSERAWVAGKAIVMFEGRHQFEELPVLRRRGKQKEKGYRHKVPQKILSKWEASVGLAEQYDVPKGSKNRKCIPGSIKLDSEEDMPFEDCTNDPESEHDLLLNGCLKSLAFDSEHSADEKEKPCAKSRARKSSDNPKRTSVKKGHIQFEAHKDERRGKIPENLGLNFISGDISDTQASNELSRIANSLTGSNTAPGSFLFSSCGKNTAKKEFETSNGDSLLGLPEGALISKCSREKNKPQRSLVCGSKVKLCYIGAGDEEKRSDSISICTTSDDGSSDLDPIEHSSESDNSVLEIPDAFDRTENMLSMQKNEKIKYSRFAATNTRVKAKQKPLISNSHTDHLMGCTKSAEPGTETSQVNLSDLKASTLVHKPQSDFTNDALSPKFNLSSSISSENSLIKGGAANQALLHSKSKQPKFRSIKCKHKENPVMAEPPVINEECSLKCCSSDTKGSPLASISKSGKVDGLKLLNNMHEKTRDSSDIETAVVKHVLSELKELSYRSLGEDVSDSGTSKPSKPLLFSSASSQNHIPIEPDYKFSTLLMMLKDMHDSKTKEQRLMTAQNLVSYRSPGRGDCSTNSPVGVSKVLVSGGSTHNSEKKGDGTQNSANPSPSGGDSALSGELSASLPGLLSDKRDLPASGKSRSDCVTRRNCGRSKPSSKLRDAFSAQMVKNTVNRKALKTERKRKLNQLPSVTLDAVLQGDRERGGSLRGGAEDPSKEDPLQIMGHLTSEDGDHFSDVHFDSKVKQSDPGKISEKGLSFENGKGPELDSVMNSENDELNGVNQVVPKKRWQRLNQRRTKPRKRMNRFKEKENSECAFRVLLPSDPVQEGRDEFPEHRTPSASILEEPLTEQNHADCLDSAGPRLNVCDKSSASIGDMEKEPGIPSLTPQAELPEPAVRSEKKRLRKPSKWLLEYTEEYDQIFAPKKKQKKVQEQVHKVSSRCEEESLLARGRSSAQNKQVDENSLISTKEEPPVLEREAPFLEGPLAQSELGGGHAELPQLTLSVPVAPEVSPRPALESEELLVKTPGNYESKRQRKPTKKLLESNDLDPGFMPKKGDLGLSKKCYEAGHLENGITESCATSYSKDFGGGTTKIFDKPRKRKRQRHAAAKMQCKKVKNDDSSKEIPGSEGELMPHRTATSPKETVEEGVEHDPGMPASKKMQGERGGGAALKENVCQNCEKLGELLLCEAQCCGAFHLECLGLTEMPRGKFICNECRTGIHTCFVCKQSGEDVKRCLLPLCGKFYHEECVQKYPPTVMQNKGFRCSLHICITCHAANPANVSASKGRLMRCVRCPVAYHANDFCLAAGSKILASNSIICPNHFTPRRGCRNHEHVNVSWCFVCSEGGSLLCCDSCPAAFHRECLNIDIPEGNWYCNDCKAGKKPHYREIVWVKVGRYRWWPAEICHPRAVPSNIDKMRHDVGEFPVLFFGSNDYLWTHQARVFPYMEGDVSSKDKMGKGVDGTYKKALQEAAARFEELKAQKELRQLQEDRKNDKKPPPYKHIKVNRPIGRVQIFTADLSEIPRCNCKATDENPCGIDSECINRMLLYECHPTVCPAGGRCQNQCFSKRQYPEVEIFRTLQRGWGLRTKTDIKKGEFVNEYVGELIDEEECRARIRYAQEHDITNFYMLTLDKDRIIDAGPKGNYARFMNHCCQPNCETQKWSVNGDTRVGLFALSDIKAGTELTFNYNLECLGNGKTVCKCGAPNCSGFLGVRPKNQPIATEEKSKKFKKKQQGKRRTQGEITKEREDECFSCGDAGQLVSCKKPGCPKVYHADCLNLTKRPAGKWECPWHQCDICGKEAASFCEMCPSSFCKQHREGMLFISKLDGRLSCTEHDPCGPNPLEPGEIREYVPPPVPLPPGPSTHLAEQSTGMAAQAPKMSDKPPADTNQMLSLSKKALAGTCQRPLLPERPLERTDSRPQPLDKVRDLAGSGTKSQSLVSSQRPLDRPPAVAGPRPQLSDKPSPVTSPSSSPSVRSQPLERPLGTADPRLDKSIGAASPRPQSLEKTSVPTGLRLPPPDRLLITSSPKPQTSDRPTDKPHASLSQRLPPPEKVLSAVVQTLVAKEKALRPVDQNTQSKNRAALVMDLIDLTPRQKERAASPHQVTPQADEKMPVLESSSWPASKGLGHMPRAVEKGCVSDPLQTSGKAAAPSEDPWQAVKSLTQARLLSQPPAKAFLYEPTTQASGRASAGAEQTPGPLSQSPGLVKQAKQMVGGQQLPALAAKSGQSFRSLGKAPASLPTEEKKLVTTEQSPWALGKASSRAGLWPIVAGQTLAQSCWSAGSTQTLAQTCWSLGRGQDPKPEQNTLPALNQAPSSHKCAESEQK
Experiment [15] addresses Protein polybromo-1 (Homo sapiens) (UniProt Q86U86). The experiment can be described thus: Selectivity interaction (Bromodomain panel (DSF asssay)) EUB0000270b PBRM1.
The target in another experiment is D(3) dopamine receptor (Homo sapiens, UniProt P35462). The experiment can be described thus: Selectivity interaction (GPCR panel (PDSP screen)) EUB0001079a DRD3. Particulars: at 10 µM.
D(3) dopamine receptor, sequence (P35462 whole entry): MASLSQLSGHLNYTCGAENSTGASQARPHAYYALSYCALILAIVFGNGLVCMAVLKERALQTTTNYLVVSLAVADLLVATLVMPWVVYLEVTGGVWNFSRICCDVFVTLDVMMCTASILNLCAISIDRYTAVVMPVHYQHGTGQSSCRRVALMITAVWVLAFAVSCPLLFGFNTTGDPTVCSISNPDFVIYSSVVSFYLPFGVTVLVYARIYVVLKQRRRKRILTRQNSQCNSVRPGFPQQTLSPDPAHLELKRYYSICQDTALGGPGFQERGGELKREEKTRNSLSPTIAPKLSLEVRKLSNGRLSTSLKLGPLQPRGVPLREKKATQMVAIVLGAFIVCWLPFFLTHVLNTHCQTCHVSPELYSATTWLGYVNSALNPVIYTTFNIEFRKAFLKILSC
The target in experiment [16] is Serine/threonine-protein kinase RIO2 (Homo sapiens) (UniProt Q9BVS4). The experiment can be described thus: Selectivity interaction (KinomeScan (DiscoverX)) EUB0001079a RIOK2. As to conditions: at 1 µM.
Experiment [17] relates to Tyrosine-protein kinase ABL1 (Homo sapiens), P00519 [F317L]. The experiment can be described thus: Selectivity interaction (KinomeScan (DiscoverX)) EUB0000229b ABL1. As to conditions: at 1 µM.

Serine/threonine-protein kinase MARK1 (Homo sapiens), sequence (Q9P0L2 whole entry, looked up): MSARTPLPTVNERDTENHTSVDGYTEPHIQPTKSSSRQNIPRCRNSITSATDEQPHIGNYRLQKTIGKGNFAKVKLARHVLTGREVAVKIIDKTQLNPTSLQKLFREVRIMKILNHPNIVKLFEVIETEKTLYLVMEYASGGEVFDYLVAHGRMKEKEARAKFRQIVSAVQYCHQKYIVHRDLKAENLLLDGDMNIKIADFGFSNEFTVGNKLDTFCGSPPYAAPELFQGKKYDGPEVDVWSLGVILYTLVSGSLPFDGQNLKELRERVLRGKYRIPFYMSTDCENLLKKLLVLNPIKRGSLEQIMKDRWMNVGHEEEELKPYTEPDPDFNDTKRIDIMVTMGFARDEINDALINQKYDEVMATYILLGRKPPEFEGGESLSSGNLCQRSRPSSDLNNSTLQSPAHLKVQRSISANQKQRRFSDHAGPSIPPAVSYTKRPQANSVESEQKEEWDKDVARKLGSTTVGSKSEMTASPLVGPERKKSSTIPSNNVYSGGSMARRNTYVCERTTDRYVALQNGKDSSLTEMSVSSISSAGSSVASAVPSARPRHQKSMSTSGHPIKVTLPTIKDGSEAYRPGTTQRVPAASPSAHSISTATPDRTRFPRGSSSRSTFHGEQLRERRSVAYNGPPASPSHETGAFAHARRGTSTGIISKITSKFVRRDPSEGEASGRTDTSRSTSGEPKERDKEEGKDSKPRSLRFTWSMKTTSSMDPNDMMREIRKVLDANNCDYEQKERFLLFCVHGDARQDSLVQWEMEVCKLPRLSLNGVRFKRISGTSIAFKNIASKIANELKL
Thromboxane-A synthase (Homo sapiens), sequence (P24557 whole entry): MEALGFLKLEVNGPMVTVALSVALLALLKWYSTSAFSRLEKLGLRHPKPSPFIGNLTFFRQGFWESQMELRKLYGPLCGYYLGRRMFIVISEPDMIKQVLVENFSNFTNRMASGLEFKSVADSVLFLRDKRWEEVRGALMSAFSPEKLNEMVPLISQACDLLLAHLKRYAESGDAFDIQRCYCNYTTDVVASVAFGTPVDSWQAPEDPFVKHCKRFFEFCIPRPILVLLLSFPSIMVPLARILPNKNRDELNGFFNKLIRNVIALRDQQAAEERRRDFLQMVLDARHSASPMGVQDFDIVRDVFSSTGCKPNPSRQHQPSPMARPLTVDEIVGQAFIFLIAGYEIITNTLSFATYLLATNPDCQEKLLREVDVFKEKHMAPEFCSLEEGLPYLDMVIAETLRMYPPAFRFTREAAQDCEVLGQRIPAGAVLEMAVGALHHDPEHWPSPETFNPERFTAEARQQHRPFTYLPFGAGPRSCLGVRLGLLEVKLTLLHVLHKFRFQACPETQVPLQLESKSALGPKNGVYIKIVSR

Regarding `CC[C@@H](Nc1c(C#N)c(-c2ccc(-c3cccc(C)c3F)cc2)nc2cnccc12)C(=O)O` [BAY-091], the % of inhibition in [1] is 98%.
Consider `N#Cc1cccc(-c2c[nH]c3ncnc(N4CCOCC4)c23)c1`, for which the values for the % of control in experiment [2] and in [3] were 71% and 86%, respectively.
For the compound `CCN(CC)CCCCNc1ncc2cc(-c3cc(OC)cc(OC)c3)c(NC(=O)NC(C)(C)C)nc2n1`, the % of control in experiment [4] worked out at 100%.
Regarding `Cc1cc(F)c(C(=O)Nc2cccc(-c3nncn3C(C)C)n2)cc1-n1cnc(C2CC2)c1`, the % of control in experiment [5] was found to be 100%.
In the case of `CNC(=O)Nc1ccc(-c2nc(N3CC4CCC(C3)O4)c3cnn(C4CCC5(CC4)OCCO5)c3n2)cc1`, the % of control in experiment [6] was 77%. Further, in experiment [7], the % of inhibition was -1%.
Compound `Cc1cc([C@@H](C)Nc2ccccc2C(=O)O)c2nc(N3CCOCC3)cc(=O)n2c1` [AZD-6482] had a % of control in [8] of 100%.
On to `CC[C@@H]1[C@H](F)C(=O)N[C@@H]1COc1nccc2cc(C(N)=O)c(OC)cc12` [ZIMLOVISERTIB], for which the values for the % of inhibition in [9], in [10] and in experiment [11] were 8.4%, 91.4% and 76.4%, respectively.
For `CN(C(=O)c1cnn2cccnc12)c1cc2c(cc1N1CCOCC1)C(=O)N(C[C@@H](F)C(C)(C)O)C2`, in experiment [12], the dTM turned out to be 1.7 K.
As for `CN1Cc2nccc(-c3cn(C)nc3-c3ccc(F)cc3)c2C1=O`, the % of inhibition in experiment [13] is -3%.
Compound `Cc1cc(CN)cc(C)c1-c1ncn(C)c1-c1cncn1C` displayed a dTagg in [14] of 0.1 K. The compound also displayed a dTM in [15] of -1.91 K.
Consider `Nc1cnc(N2CCc3cc(S(=O)(=O)Nc4c(F)cc(Cl)cc4F)cc(N4CCCC4=O)c32)nc1` [TP-020n], for which, at D(3) dopamine receptor, the % of inhibition stood at 7.41%. The same compound yielded a % of control in [16] of 89%.
`COc1cc(N(C)c2ccnc3ccc(C(F)(F)F)cc23)cc(OC)c1OC`: the % binding in experiment [17] is 90%.
